Data from PMC9757750 (Science Advances, 2022).

Target: LegA15 (Legionella pneumophila, UniProt Q5ZSR1)
Assay: biochemical

Sequence of LegA15 (Q5ZSR1 1-471): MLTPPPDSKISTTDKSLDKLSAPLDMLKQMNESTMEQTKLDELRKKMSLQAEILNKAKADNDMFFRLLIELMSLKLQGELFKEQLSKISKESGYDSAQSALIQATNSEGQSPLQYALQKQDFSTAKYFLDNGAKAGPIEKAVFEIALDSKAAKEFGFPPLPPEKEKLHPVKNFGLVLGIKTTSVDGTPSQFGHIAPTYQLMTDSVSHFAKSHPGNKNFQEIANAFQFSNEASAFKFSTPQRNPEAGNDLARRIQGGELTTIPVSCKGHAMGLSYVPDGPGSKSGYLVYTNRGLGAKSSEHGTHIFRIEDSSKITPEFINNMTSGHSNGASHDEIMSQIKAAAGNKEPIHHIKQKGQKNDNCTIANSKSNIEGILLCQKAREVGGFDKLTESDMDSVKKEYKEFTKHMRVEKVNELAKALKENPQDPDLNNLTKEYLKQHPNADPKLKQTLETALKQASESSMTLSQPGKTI

Structure (SMILES)	Kd
Nc1nc2c(ncn2[C@@H]2O[C@H](COP(=O)(O)OP(=O)(O)O)[C@@H](O)[C@H]2O)c(=O)[nH]1 [GDP]	20.5 µM
Nc1nc2c(ncn2[C@@H]2O[C@H](COP(=O)(O)OP(=O)(O)OP(=O)(O)O)[C@@H](O)[C@H]2O)c(=O)[nH]1 [GTP]	1.38 µM
